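Results reflect a 48-hour exposure of cells in 96-well plates to compound at five concentrations. GI50: concentration for 50% inhibition of growth. TGI: concentration producing complete growth inhibition.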

Among the test systems are MDA-MB-435; LOX IMVI melanoma; SN12C renal; MALME-3M melanoma; SW-620 colon; NCI-H23 lung; SK-MEL-28 melanoma; M14 melanoma; UACC-62 melanoma; NCI/ADR-RES ovarian.
What all share (test): growth of human tumour cells (NCI), 48 h

Turning to `O=C(/C=C/c1ccco1)Nc1ncc(Cc2ccc(F)cc2)s1`, the GI50 in the assay on MDA-MB-435 is 0.0219 µM; with LOX IMVI melanoma it was 0.0918 µM; in the assay with SN12C renal, 0.189 µM; with MALME-3M melanoma, 0.249 µM; in the assay on SW-620 colon, 0.0443 µM; in the assay on NCI-H23 lung, 0.234 µM. Moreover, the GI50 with SK-MEL-28 melanoma was 3.5 µM; with M14 melanoma it was 0.036 µM; with UACC-62 melanoma it was 0.0555 µM; in the assay on NCI/ADR-RES ovarian, 0.0445 µM. For the same compound, the TGI in the assay on MDA-MB-435 was 0.0558 µM; in the assay on LOX IMVI melanoma, > 100 µM; in the assay on SN12C renal it was > 100 µM; with MALME-3M melanoma it was > 100 µM; in the assay with SW-620 colon, > 100 µM; in the assay with NCI-H23 lung, > 100 µM. For the same compound, the TGI in the assay with SK-MEL-28 melanoma was > 100 µM; with M14 melanoma it was > 100 µM; in the assay with UACC-62 melanoma, > 100 µM; in the assay with NCI/ADR-RES ovarian, 4.02 µM.
For the compound `CC[C@H](C)[C@H](NC(=O)C12C3C4C1C1C2C3C41NC(C)=O)C(=O)N(C)[C@H](C[C@@H](OC(C)=O)c1nc(C(=O)N[C@@H](Cc2ccccc2)C[C@H](C)C(=O)OC)cs1)C(C)C` (stereo partly drawn), the GI50 was 0.0427 µM in the assay on MDA-MB-435; 0.231 µM in the assay on LOX IMVI melanoma; 0.799 µM in the assay with SN12C renal; 0.206 µM in the assay with SW-620 colon; 0.884 µM with NCI-H23 lung; > 3.7 µM in the assay on SK-MEL-28 melanoma. Further, the values for the GI50 in the assay with M14 melanoma, with UACC-62 melanoma and in the assay on NCI/ADR-RES ovarian were 0.259 µM, 0.112 µM and > 14.3 µM, respectively. In addition, the TGI in the assay with MDA-MB-435 was 0.625 µM; in the assay with LOX IMVI melanoma, > 14.3 µM; in the assay with SN12C renal it was > 14.3 µM; with MALME-3M melanoma, > 14.3 µM; in the assay with SW-620 colon, > 14.3 µM; in the assay with NCI-H23 lung it was > 14.3 µM. Moreover, the TGI is > 14.3 µM in the assay with SK-MEL-28 melanoma, 2.25 µM in the assay on M14 melanoma, > 14.3 µM in the assay with UACC-62 melanoma and > 14.3 µM with NCI/ADR-RES ovarian.
For `C[C@H]1[C@@H](OCC(CO[C@H]2O[C@@H]3O[C@@]4(C)CC[C@H]5[C@H](C)CC[C@@H]([C@H]2C)[C@@]35OO4)=NOCC(=O)O)OC2O[C@@]3(C)CC[C@H]4[C@H](C)CC[C@@H]1[C@@]24OO3` (stereo partly drawn), the GI50 with MDA-MB-435 was 0.02 µM; with LOX IMVI melanoma it was < 0.01 µM; in the assay with SN12C renal, 0.0215 µM; with MALME-3M melanoma, < 0.0245 µM; in the assay on SW-620 colon, < 0.0137 µM; with NCI-H23 lung, < 0.0283 µM. Besides, the GI50 is 0.756 µM in the assay with SK-MEL-28 melanoma, 0.205 µM in the assay on M14 melanoma, 0.0336 µM with UACC-62 melanoma and 0.525 µM in the assay on NCI/ADR-RES ovarian. Further, the TGI is 5.25 µM with MDA-MB-435; 13.3 µM in the assay with LOX IMVI melanoma; 1.02 µM with SN12C renal; 18 µM in the assay with SW-620 colon; 18.1 µM in the assay with NCI-H23 lung; 20.6 µM in the assay on SK-MEL-28 melanoma. For the same compound, the figures for the TGI in the assay with M14 melanoma, with UACC-62 melanoma and in the assay with NCI/ADR-RES ovarian were 18.8 µM, 15.5 µM and 16.4 µM, respectively.
As to `CCSC1=CC(=O)c2ccccc2C1=O`, the GI50 is 2.69 µM with MDA-MB-435; 2.55 µM in the assay on LOX IMVI melanoma; 14.5 µM in the assay with SN12C renal; 1.99 µM in the assay on MALME-3M melanoma; 1.56 µM in the assay on SW-620 colon; 9.05 µM with NCI-H23 lung. Also, the GI50 is 14.4 µM in the assay with SK-MEL-28 melanoma, 12.8 µM in the assay on M14 melanoma, 4.79 µM with UACC-62 melanoma and 2.37 µM in the assay with NCI/ADR-RES ovarian. Moreover, the TGI amounted to 7.02 µM with MDA-MB-435; 8.89 µM in the assay with LOX IMVI melanoma; 28.6 µM with SN12C renal; 5.34 µM in the assay on MALME-3M melanoma; 3.42 µM with SW-620 colon; 26.6 µM in the assay on NCI-H23 lung. The TGI in the assay on SK-MEL-28 melanoma turned out to be 28.9 µM; in the assay with M14 melanoma, 26 µM; in the assay with UACC-62 melanoma, 17.2 µM; in the assay on NCI/ADR-RES ovarian, 7.39 µM.
For `CCCC[C@@H](COC(=O)N(Cc1cccs1)Cc1cccs1)NC(=O)N[C@@H](CC(=O)OC)c1ccc2c(c1)OCO2`, the GI50 in the assay with MDA-MB-435, with LOX IMVI melanoma, in the assay on SN12C renal, in the assay on MALME-3M melanoma, in the assay with SW-620 colon and in the assay on NCI-H23 lung was > 100 µM throughout. In addition, the GI50 in the assay with SK-MEL-28 melanoma, in the assay with M14 melanoma, in the assay with UACC-62 melanoma and in the assay on NCI/ADR-RES ovarian was > 100 µM each time. Also, the TGI with MDA-MB-435, with LOX IMVI melanoma, in the assay on SN12C renal, in the assay with MALME-3M melanoma, with SW-620 colon and in the assay on NCI-H23 lung was > 100 µM in each case. Further, the TGI with SK-MEL-28 melanoma, in the assay on M14 melanoma, in the assay with UACC-62 melanoma and in the assay with NCI/ADR-RES ovarian was > 100 µM throughout.
